Consider five molecules from ChEMBL document CHEMBL1128401, “Structure-activity relationships in the 8-amino-6,7,8,9-tetrahydro-3H-benz[e]indole ring system. 1. Effects of substituents in the aromatic system on serotonin and dopamine receptor subtypes” (J Med Chem, 1995).

For orientation: Ki means the equilibrium dissociation constant of an inhibitor or competing ligand from its target. For orientation: ED50 means the dose that gives a 50% effect, or the effect in half of the subjects. As a reminder, the Tmax is the time at which the peak concentration occurs. By bioavailability is commonly meant the share of a dose that reaches the circulation, judged against a reference dose that is usually intravenous. Higher therefore signals much systemic uptake.

The structures appear in SMILES notation. Active and inactive are the calls of the source. The rule behind the calls is not given here.

Data set [1] deals with T1, D(2) dopamine receptor (Rattus norvegicus, UniProt P61169). The data set is described as follows: Binding affinity against Dopamine receptor D2 expressed in CHO-K1 cells, using [3H]U-86170 as the radioligand. The data set is classed as cell-based.
T1 sequence (P61169 whole entry): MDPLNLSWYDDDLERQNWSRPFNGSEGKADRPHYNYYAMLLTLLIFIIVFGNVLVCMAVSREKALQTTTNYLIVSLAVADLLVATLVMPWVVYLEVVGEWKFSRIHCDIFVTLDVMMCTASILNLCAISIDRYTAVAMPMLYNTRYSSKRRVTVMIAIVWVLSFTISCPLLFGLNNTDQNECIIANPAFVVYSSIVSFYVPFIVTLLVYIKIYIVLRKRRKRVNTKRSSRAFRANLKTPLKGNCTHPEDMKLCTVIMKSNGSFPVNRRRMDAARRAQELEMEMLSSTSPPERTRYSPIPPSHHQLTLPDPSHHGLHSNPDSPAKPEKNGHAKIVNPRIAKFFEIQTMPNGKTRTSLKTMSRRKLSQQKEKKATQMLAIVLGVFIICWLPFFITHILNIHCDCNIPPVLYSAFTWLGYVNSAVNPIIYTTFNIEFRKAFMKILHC
For data set [2], the system named is Rattus norvegicus. Briefly: The compound was tested in vivo for DOPA accumulation in limbic system against reserpine-pretreated rats; P=significant partial reduction only at the highest dose tested (20). The data set is classed as functional, organism-based.
Data set [3] deals with Rattus norvegicus. The data set is described as follows: compound was tested in vivo for 5-HTP accumulation in limbic system against reserpine-pretreated rats; P=significant partial reduction only at the highest dose tested (20). The data set is classed as functional, organism-based.
Data set [4] concerns Rattus norvegicus. The data set is described as follows: compound was tested in vivo for 5-HTP accumulation in corpus striatum against reserpine-pretreated rats, activity expressed as ED50; P=significant partial reduction only at the highest dose tested (20). The format is functional, organism-based.
Data set [5] has as its target 5-hydroxytryptamine receptor 1B (Homo sapiens, UniProt P28222). Briefly: Binding affinity against 5-hydroxytryptamine 1D receptor beta expressed in CHO-K1 cells, using [3H]5-HT as the radioligand. The format is cell-based. The settings on record: read-out: Ki.
Data set [6] addresses T2, 5-hydroxytryptamine receptor 1A (Rattus norvegicus, UniProt P19327).
T2 sequence (P19327 whole entry): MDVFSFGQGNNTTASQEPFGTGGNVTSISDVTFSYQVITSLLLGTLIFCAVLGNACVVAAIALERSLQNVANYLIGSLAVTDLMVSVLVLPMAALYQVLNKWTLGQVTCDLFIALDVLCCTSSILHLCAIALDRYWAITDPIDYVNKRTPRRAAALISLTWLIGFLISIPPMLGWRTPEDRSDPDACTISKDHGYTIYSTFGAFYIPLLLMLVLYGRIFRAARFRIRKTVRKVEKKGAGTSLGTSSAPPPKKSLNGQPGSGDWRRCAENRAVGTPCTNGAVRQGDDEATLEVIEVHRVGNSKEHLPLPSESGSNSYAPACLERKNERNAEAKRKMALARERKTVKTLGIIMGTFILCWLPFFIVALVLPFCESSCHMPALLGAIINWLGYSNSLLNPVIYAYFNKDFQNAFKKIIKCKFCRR
The data set is described as follows: Binding affinity against 5-hydroxytryptamine 1A receptor from CHO-K1 cells, using [3H]8-OH-DPAT as the radioligand. The format is cell-based.

Data set [7] deals with Rattus norvegicus. Briefly: The compound was tested in vivo for DOPA accumulation in hemispheres (cortex) against reserpine-pretreated rats; I= inactive at the highest dose tested (20). The format is functional, organism-based.
For data set [8], the system named is Rattus norvegicus. The data set is described as follows: compound was tested in vivo for 5-HTP accumulation in hemispheres (cortex) against reserpine-pretreated rats; P=significant partial reduction only at the highest dose tested (20). The data set is classed as functional, organism-based.
Data set [9] concerns the target T3, D(3) dopamine receptor (Rattus norvegicus, UniProt P19020). The data set is described as follows: The compound was tested in vitro for binding affinity against cloned mammalian Dopamine receptor D3 expressed in CHO cells by, using [3H]spiperone as radioligand. The data set is classed as cell-based.
Data set [10] deals with 5-hydroxytryptamine receptor 1D (Homo sapiens, UniProt P28221). Briefly: Binding affinity against 5-hydroxytryptamine 1D receptor alpha expressed in CHO-K1 cells, using [3H]-5-HT as the radioligand. The format is cell-based. The settings on record: read-out: Ki.
5-hydroxytryptamine receptor 1D, sequence (P28221 whole entry): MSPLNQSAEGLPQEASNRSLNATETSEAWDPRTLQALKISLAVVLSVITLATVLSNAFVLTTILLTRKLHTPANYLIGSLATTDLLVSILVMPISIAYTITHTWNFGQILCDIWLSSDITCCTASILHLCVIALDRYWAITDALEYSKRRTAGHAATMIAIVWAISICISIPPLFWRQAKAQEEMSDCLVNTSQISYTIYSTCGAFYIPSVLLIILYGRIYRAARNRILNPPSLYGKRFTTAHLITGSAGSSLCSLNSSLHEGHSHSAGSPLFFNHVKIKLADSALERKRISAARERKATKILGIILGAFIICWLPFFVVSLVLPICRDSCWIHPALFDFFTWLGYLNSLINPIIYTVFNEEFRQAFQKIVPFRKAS
The test system of data set [11] is Rattus norvegicus. Briefly: compound was tested in vivo for DOPA accumulation in corpus striatum against reserpine-pretreated rats; P=significant partial reduction only at the highest dose tested (20). The data set is classed as functional, organism-based.
Data set [12] has as its system Rattus norvegicus. The data set is described as follows: In vivo for DOPA accumulation in corpus striatum against reserpine-pretreated rats. The data set is classed as functional.
Data set [13] deals with T3, D(3) dopamine receptor. Briefly: Binding affinity against Dopamine receptor D3 from CHO-K1 cells, using [3H]spiperone as the radioligand. The format is cell-based. The settings on record: read-out: Ki.
The test system of data set [14] is Rattus norvegicus. Briefly: In vivo for DOPA accumulation in limbic system against reserpine-pretreated rats. The format is functional.
Data set [15] concerns Rattus norvegicus. Briefly: In vivo for 5-HTP accumulation in limbic system against reserpine-pretreated rats. The data set is classed as functional.
Data set [16] in a line: tmax in hours at a dose of 10.0(pmol/g/h). The data set is classed as ADME.
Data set [17] relates to Rattus norvegicus. The data set is described as follows: Bioavailability in male Sprague-Dawley rats, after the po administration at a dose of 10.0(pmol/g/h). The data set is classed as ADME, organism-based. The settings on record: in vivo.
Data set [18] deals with Rattus norvegicus. The data set is described as follows: In vivo for 5-HTP accumulation in corpus striatum against reserpine-pretreated rats. The data set is classed as functional.
Data set [19] concerns the target T1, D(2) dopamine receptor. The data set is described as follows: Binding affinity against Dopamine receptor D2 from CHO-K1 cells, using [3H]U-86,170 as the radioligand. The format is cell-based.
In data set [20] the test system is Rattus norvegicus. Briefly: The Compound was tested in vivo for DOPA accumulation in hemispheres (cortex) against reserpine-pretreated rats;I= inactive at the highest dose (12.5). The data set is classed as functional, organism-based.
Data set [21] in a line: tmax in hours at a iv dose of 54.0(pmol/g/h). The data set is classed as ADME, organism-based. The settings on record: in vivo.
Data set [22] is described as follows: Bioavailability in rat plasma following iv/po dose. The format is ADME, organism-based.
Data set [23] deals with Rattus norvegicus. Briefly: Bioavailability in male Sprague-Dawley rats, after the iv administration at a dose of 54.0(pmol/g/h). The data set is classed as ADME, organism-based. The settings on record: in vivo.
Data set [24] has as its system Rattus norvegicus. The data set is described as follows: In vivo for 5-HTP accumulation in hemispheres (cortex) against reserpine-pretreated rats. The format is functional.
Data set [25] is described as follows: tmax in hours at a po dose of 10.0(pmol/g/h). The settings on record: in vivo, 10 pmol/g/h. The format is ADME, organism-based.
Data set [26] in a line: Ratio of the 5-HTP accumulation decrease in limbic regions after oral and subcutaneous administration in rat. The data set is classed as functional, Limbic system.
For data set [27], the system named is Rattus norvegicus. Briefly: Bioavailability in male Sprague-Dawley rats, after the iv administration at a dose of 4.0(pmol/g/h). The data set is classed as ADME, organism-based. The settings on record: in vivo.
Data set [28] in a line: tmax in hours at a iv dose of 4.0(pmol/g/h). The settings on record: in vivo. The data set is classed as ADME, organism-based.
Data set [29] has as its system Rattus norvegicus. Briefly: The Compound was tested in vivo for DOPA accumulation in hemispheres (cortex) against reserpine-pretreated rats; I= inactive at the highest dose tested (12.5). The data set is classed as functional, organism-based.
Data set [30] concerns Rattus norvegicus. The data set is described as follows: compound was tested in vivo for DOPA accumulation in corpus striatum against reserpine-pretreated rats;I= inactive at the highest dose tested. The data set is classed as functional, organism-based.
Data set [31] has as its system Rattus norvegicus. Briefly: The compound was tested in vivo for DOPA accumulation in limbic system against reserpine-pretreated rats;I= inactive at the highest dose tested. The format is functional, organism-based.
Data set [32] relates to Rattus norvegicus. The data set is described as follows: The compound was tested in vivo for DOPA accumulation in hemispheres (cortex) against reserpine-pretreated rats;I= inactive at the highest dose tested. The data set is classed as functional, organism-based.
Data set [33] concerns the target T1, D(2) dopamine receptor. The settings on record: cho-k1.
Data set [34] has as its system Rattus norvegicus. Briefly: Compound was tested in vivo for DOPA accumulation in corpus striatum against reserpine-pretreated rats;P= significant partial reduction only at the highest dose tested (50). The format is functional, organism-based.
The test system of data set [35] is Rattus norvegicus. Briefly: The Compound was tested in vivo for DOPA accumulation in hemispheres (cortex) against reserpine-pretreated rats; P=significant partial reduction only at the highest dose tested (50). The data set is classed as functional, organism-based.
For data set [36], the system named is Rattus norvegicus. The data set is described as follows: Compound was tested in vivo for 5-HTP accumulation in hemispheres (cortex) against reserpine-pretreated rats; P=significant partial reduction only at the highest dose tested (50). The data set is classed as functional, organism-based.
Data set [37] deals with Rattus norvegicus. The data set is described as follows: Compound was tested in vivo for 5-HTP accumulation in limbic system against reserpine-pretreated rats; P=significant partial reduction only at the highest dose tested (50). The format is functional, organism-based.
The test system of data set [38] is Rattus norvegicus. The data set is described as follows: The Compound was tested in vivo for DOPA accumulation in limbic system against reserpine-pretreated rats; P=significant partial reduction only at the highest dose tested (50). The format is functional, organism-based.
The subject of data set [39] is Rattus norvegicus. Briefly: Compound was tested in vivo for 5-HTP accumulation in corpus striatum against reserpine-pretreated rats; P=significant partial reduction only at the highest dose tested (50). The format is functional, organism-based.

T3 sequence (P19020 whole entry): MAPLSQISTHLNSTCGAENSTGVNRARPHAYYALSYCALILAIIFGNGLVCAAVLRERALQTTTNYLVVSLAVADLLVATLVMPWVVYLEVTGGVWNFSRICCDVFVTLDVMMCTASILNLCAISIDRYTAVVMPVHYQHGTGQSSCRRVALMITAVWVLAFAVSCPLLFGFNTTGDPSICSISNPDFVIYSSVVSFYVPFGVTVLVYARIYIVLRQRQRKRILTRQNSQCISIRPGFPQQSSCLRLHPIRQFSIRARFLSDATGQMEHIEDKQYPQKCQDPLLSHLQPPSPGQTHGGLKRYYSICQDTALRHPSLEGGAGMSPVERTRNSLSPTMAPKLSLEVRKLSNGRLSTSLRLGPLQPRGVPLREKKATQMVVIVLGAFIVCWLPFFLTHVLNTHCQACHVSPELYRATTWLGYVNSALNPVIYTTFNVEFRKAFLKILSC
5-hydroxytryptamine receptor 1B, sequence (P28222 whole entry): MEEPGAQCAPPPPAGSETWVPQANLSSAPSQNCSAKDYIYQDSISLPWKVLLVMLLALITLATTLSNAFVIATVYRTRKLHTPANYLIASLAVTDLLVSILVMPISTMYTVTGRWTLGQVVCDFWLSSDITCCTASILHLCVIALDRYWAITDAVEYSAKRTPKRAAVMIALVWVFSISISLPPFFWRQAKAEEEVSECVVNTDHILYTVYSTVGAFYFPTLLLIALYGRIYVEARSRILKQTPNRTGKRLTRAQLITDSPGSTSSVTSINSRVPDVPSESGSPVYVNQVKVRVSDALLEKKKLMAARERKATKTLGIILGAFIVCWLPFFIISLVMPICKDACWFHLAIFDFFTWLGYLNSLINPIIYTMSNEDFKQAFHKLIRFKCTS

Consider `CCCN(CCC)C1CCc2cc(F)c3c(c(C=O)cn3C)c2C1` (stereo unspecified), for which the Ki amounted to 1030 nM at D(2) dopamine receptor [1]; 618 nM in data set [5]; 28 nM in data set [6]; 572 nM at D(3) dopamine receptor [9]; 419 nM in data set [10]. The ED50 result in the data set with Rattus norvegicus [2], with Rattus norvegicus [3], with Rattus norvegicus [4], in the data set on Rattus norvegicus [8] and in the data set with Rattus norvegicus [11] was “Weak activity” in each case. The ED50 entry in the data set with Rattus norvegicus [7] was “inactive”.

Turning to `CCCN(CCC)C1CCc2cc(F)c3[nH]cc(C#N)c3c2C1` (stereo unspecified), the median effective dose (ED50) in the data set on Rattus norvegicus [12] stood at 2.1 µmol/kg; in the data set on Rattus norvegicus [14] it was 0.55 µmol/kg; in the data set with Rattus norvegicus [15] it was 0.52 µmol/kg; with Rattus norvegicus [18], 0.43 µmol/kg; in the data set with Rattus norvegicus [24], 0.46 µmol/kg. The Ki is 63 nM at D(3) dopamine receptor [13]; 121 nM in data set [5]; 72 nM on D(2) dopamine receptor [19]; 2.3 nM in [6]; 8.6 nM in data set [10]. Besides, the Tmax in data set [16] was found to be 33 h; in data set [21] it was 2 h. Besides, the AUC in the data set with Rattus norvegicus [17] is 48 pM ml-1; in the data set with Rattus norvegicus [23] it was 238 pM ml-1. Moreover, the ED50 result in the data set on Rattus norvegicus [20] is “inactive”. Besides, the bioavailability in data set [22] turned out to be 8.1%.

As to `CCCN(CCC)[C@@H]1CCc2ccc3[nH]c(C#N)cc3c2C1` [U-92,016-A], the time of peak concentration (Tmax) in data set [25] came out at 75 h; in data set [28], 4 h. Besides, the figures for the AUC with Rattus norvegicus [17] and with Rattus norvegicus [27] were 2857 pM ml-1 and 1817 pM ml-1, respectively. The ED50 ratio in [26] is recorded as 38. In addition, in [22], the bioavailability turned out to be 63%. Also, in the data set on Rattus norvegicus [29], the ED50 entry is “inactive”.

For `CCCN(CCC)[C@@H]1CCc2ccc3[nH]cc(C=O)c3c2C1`, the inhibition constant Ki on D(3) dopamine receptor [13] is 51 nM; in data set [5], 210 nM; at D(2) dopamine receptor [19], 17 nM; in data set [10], 31 nM. Moreover, the ED50 entry in the data set on Rattus norvegicus [30], in the data set with Rattus norvegicus [31] and in the data set with Rattus norvegicus [32] was “inactive” in each case.

As to `CCCN(CCC)C1CCc2ccc3[nH]cc(C(=O)C(N)=O)c3c2C1` (stereo unspecified), the Ki result at D(2) dopamine receptor [33] is “Not Active”; in data set [5] it was 552 nM; in [6] it was 24 nM; in [10] it was 87 nM. The ED50 result in the data set on Rattus norvegicus [34], in the data set with Rattus norvegicus [35], with Rattus norvegicus [36], in the data set with Rattus norvegicus [37], in the data set with Rattus norvegicus [38] and in the data set on Rattus norvegicus [39] was “Weak activity” throughout.
